Experiments:
[1] = biological target: Mitogen-activated protein kinase kinase kinase kinase 4 (Homo sapiens, UniProt O95819); test: Selectivity interaction (SelectScreen Kinase Profiling (Thermo Fisher Scientific)) EUB0001558a MAP4K4; details: at 1 µM
[2] = biological target: Ribosomal protein S6 kinase alpha-5 (Homo sapiens) (UniProt O75582); test: Selectivity interaction (KinomeScan (DiscoverX)) EUB0000229b RPS6KA5; details: at 10 µM
[3] = biological target: Serine/threonine-protein kinase PAK 4 (Homo sapiens, UniProt O96013); test: Selectivity interaction (Upstate Kinase Profiler service (Millipore)) EUB0000056c PAK4; details: at 1 µM
[4] = biological target: Ribosomal protein S6 kinase alpha-2 (Homo sapiens) (UniProt Q15349); test: Selectivity interaction (Upstate Kinase Profiler service (Millipore)) EUB0000056c RPS6KA2; details: at 1 µM
[5] = biological target: Serine/threonine-protein kinase/endoribonuclease IRE1 (Homo sapiens) (UniProt O75460); test: Selectivity interaction (KinomeScan (DiscoverX)) EUB0001079a ERN1; details: at 1 µM
[6] = biological target: Eukaryotic translation initiation factor 2-alpha kinase 1 (Homo sapiens) (UniProt Q9BQI3); test: Selectivity interaction (KinomeScan (DiscoverX)) EUB0000666a EIF2AK1; details: at 10 µM
[7] = biological target: T1, Protein kinase C epsilon type (Homo sapiens) (UniProt Q02156); details: at 10 µM
T1 sequence (whole entry): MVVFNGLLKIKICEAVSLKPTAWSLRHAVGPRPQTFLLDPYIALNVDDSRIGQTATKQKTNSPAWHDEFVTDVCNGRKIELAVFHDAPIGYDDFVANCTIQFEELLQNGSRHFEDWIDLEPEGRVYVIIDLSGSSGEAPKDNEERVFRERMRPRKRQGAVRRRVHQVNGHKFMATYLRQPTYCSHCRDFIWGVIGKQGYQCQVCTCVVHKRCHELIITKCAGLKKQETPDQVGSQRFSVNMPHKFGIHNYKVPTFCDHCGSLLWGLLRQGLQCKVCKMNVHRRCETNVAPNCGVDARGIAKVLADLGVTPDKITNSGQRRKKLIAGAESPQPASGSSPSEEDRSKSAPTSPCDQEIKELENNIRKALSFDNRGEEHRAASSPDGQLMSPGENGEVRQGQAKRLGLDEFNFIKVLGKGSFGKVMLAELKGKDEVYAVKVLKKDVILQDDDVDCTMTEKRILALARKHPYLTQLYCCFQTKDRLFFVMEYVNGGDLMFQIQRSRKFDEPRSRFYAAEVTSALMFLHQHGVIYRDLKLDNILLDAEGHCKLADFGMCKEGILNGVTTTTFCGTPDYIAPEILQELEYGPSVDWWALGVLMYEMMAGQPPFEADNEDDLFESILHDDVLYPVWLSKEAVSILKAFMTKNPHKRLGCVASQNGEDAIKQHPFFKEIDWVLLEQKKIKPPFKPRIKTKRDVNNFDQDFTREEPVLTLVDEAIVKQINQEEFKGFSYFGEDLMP

[8] = biological target: Serine/threonine-protein kinase B-raf (Homo sapiens) (UniProt P15056); test: Selectivity interaction (Kinase panel (Invitrogen)) EUB0000639a BRAF; details: at 200 nM
[9] = biological target: T2, Dual specificity mitogen-activated protein kinase kinase 4 (Homo sapiens) (UniProt P45985); test: Selectivity interaction (ActivX KiNativ screen (kinase selectivity in THP-1 cell lysates)) EUB0000639a MAP2K4; format: subcellular; details: lysate, at 1 µM
T2 sequence (whole entry): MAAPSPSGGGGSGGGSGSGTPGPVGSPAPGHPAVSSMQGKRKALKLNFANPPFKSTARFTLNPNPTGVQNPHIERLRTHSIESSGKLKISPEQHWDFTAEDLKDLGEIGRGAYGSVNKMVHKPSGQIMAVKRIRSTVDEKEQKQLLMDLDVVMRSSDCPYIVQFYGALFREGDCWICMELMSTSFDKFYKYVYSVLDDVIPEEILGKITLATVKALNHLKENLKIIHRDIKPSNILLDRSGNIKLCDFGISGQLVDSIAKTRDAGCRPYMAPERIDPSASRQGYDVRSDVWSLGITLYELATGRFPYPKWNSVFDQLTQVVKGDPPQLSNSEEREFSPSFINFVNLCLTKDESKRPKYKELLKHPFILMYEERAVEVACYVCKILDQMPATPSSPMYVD

[10] = biological target: T3, Testis-specific serine/threonine-protein kinase 3 (Homo sapiens) (UniProt Q96PN8); test: Selectivity interaction (SelectScreen profiling (Invitrogen)) EUB0000607a TSSK3; details: at 2 µM
T3 sequence (whole entry): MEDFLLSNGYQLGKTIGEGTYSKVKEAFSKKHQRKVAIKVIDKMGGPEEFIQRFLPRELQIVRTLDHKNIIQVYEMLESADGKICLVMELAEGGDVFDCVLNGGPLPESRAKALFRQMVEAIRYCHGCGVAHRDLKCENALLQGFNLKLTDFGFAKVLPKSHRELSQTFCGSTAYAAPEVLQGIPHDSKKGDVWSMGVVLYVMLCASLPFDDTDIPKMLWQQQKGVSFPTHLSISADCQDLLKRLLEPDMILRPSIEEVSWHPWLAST

[11] = biological target: 1-phosphatidylinositol 3-phosphate 5-kinase (Homo sapiens) (UniProt Q9Y2I7); test: Selectivity interaction (KinomeScan (DiscoverX)) EUB0001049a PIKFYVE; details: at 1 µM
[12] = biological target: T4, G protein-coupled receptor kinase 3 (Homo sapiens) (UniProt P35626); test: Selectivity interaction (KinomeScan (DiscoverX)) EUB0000695a ADRBK2; details: at 100 nM
T4 sequence (whole entry): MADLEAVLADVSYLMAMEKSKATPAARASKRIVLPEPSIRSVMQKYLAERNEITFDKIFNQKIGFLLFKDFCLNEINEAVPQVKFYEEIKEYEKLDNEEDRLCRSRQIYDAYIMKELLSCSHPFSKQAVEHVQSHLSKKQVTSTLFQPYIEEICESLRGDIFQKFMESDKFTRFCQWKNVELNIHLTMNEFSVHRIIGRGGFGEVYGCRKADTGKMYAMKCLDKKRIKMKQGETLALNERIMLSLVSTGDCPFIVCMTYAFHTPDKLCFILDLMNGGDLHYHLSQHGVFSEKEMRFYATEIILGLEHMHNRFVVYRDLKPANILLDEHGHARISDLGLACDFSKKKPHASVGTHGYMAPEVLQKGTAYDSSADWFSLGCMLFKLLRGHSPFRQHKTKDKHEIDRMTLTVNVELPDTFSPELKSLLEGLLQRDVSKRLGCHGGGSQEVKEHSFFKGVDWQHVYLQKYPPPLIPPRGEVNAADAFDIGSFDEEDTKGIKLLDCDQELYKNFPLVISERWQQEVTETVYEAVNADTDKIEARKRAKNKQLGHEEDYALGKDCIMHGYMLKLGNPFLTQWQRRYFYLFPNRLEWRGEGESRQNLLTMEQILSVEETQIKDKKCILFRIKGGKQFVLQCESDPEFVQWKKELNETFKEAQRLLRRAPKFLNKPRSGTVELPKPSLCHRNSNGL

[13] = biological target: Insulin receptor-related protein (Homo sapiens) (UniProt P14616); test: Selectivity interaction (KinomeScan (DiscoverX)) EUB0001619a INSRR; details: at 1 µM
Insulin receptor-related protein (Homo sapiens), sequence (P14616 27-742 limits assumed): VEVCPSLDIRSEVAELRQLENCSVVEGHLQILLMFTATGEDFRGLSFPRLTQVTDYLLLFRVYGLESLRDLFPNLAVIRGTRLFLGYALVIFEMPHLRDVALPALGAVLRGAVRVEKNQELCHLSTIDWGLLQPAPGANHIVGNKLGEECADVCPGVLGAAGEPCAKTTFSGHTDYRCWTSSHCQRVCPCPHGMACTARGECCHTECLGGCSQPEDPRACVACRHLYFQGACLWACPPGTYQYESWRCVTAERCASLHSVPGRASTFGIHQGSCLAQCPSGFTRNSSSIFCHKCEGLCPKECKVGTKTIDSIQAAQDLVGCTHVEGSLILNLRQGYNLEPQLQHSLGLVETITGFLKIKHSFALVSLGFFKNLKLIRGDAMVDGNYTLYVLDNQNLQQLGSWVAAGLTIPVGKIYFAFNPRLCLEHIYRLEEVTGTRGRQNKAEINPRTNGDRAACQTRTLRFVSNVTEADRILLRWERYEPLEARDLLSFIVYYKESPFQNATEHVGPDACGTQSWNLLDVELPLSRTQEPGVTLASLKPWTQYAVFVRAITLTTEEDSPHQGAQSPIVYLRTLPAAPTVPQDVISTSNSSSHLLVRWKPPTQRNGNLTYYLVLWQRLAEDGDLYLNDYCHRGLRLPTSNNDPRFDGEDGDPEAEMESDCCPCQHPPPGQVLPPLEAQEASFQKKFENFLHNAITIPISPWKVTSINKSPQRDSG
Insulin receptor-related protein (Homo sapiens), sequence (P14616 747-1297 limits assumed): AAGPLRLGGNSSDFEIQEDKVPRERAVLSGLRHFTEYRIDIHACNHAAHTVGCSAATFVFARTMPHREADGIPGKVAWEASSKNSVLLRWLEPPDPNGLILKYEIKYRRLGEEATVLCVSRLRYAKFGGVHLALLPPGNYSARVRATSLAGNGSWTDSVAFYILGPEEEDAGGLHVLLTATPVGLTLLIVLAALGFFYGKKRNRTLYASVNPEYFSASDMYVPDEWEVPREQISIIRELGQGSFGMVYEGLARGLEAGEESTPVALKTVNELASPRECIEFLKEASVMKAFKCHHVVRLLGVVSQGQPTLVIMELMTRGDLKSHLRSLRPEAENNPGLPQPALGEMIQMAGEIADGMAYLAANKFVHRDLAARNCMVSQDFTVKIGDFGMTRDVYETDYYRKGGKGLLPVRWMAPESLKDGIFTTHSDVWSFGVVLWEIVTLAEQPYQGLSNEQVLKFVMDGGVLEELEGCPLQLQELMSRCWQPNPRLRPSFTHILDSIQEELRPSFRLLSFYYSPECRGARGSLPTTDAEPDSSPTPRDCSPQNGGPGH

Serine/threonine-protein kinase/endoribonuclease IRE1 (Homo sapiens), sequence (O75460 19-977 limits assumed): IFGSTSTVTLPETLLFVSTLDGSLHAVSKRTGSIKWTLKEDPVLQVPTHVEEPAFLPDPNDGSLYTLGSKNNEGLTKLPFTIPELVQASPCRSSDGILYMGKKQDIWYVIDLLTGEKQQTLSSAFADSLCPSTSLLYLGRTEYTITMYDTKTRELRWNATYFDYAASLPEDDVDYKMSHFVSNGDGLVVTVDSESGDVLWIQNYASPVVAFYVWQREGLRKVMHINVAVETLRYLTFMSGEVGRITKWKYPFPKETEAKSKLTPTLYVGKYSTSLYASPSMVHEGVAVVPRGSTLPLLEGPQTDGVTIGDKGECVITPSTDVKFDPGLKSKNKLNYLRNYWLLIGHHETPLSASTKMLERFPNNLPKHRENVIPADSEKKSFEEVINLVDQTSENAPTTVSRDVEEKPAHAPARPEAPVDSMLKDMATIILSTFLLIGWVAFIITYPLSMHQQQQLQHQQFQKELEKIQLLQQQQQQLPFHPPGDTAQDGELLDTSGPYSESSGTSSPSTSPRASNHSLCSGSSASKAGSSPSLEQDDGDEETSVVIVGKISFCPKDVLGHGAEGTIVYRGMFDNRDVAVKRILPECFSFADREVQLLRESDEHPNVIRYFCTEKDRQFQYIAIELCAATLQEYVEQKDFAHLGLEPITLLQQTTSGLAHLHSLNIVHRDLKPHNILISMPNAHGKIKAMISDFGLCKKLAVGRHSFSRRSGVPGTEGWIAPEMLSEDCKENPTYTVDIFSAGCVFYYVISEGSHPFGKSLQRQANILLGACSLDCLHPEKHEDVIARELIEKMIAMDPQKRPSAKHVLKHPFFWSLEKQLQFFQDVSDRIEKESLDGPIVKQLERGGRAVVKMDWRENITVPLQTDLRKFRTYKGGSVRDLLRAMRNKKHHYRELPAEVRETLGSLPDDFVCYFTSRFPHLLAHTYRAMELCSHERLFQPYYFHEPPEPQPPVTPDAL
Serine/threonine-protein kinase B-raf (Homo sapiens), sequence (P15056 whole entry): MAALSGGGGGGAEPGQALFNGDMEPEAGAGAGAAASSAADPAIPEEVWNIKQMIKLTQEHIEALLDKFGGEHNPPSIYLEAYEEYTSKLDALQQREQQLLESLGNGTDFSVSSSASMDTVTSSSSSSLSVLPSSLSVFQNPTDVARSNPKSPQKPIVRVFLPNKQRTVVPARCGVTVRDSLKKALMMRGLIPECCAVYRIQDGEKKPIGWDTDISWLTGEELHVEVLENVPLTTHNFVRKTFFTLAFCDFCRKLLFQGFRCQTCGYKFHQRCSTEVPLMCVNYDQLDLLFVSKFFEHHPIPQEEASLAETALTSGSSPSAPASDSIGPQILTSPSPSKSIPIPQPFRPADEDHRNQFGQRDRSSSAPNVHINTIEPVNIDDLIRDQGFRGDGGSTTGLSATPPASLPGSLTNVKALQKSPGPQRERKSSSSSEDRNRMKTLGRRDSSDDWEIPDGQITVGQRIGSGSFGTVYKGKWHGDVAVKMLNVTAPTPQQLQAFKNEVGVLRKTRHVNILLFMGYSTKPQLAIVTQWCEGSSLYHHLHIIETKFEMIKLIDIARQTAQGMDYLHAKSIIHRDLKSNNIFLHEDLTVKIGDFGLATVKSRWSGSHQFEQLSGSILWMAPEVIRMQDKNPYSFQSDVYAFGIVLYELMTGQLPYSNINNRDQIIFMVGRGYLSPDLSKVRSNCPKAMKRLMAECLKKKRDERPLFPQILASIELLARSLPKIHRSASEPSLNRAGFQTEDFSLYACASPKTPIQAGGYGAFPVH
Ribosomal protein S6 kinase alpha-2 (Homo sapiens), sequence (Q15349 whole entry): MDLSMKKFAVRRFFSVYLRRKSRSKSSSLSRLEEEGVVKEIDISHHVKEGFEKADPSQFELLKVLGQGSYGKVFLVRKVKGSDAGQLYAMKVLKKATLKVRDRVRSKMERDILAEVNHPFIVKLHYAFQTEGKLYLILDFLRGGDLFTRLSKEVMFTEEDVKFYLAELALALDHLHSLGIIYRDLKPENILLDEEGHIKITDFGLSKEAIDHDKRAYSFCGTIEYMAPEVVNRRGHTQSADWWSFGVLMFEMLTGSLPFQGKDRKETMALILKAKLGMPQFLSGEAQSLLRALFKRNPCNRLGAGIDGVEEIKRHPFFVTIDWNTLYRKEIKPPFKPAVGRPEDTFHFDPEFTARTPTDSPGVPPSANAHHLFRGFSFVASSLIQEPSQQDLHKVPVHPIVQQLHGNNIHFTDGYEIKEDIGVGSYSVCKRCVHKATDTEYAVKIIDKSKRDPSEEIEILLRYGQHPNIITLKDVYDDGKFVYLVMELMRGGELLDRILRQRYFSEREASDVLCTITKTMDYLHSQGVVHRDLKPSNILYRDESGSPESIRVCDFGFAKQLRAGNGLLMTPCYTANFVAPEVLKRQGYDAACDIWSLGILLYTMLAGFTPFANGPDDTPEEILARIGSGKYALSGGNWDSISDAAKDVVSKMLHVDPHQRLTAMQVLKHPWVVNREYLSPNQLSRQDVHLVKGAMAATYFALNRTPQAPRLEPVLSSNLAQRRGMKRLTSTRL
Serine/threonine-protein kinase PAK 4, sequence (O96013 whole entry, looked up): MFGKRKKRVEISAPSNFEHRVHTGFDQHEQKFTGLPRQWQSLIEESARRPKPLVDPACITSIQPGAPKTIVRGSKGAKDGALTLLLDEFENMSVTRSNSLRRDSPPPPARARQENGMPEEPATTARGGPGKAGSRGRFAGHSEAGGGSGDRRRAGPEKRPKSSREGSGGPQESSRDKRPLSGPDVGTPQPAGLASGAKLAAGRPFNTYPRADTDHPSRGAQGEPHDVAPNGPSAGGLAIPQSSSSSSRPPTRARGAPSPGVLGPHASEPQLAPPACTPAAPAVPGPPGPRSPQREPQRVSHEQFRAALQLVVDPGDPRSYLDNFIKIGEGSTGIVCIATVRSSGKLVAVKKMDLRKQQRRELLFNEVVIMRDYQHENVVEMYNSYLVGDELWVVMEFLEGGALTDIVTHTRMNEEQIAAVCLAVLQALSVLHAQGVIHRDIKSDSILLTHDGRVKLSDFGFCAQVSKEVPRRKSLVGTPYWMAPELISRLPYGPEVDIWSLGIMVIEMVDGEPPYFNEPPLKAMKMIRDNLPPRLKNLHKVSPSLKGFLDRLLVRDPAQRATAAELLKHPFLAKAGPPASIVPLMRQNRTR
Eukaryotic translation initiation factor 2-alpha kinase 1 (Homo sapiens), sequence (Q9BQI3 whole entry): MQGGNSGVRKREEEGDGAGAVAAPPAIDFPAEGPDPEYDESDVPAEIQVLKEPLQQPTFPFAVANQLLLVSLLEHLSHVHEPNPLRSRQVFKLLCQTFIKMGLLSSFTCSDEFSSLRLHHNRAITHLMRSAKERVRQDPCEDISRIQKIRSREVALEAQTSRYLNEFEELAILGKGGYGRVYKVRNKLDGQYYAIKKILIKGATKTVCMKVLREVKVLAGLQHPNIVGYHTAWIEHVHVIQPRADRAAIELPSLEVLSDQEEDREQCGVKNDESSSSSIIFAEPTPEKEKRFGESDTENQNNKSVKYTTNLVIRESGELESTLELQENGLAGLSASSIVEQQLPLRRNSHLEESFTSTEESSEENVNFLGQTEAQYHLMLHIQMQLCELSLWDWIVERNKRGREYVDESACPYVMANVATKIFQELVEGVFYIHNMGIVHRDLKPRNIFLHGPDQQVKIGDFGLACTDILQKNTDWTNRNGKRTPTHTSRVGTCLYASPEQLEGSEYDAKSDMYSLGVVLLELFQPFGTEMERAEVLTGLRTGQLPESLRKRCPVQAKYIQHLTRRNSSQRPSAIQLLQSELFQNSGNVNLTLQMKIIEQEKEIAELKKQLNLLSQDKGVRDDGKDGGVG

CC(C)(O)[C@H](F)CN1Cc2cc(NC(=O)c3cnn4cccnc34)c(N3CCOCC3)cc2C1=O
% of inhibition [1]: 86.3%

COc1cc(N(C)c2ccnc3ccc(C(F)(F)F)cc23)cc(OC)c1OC
% binding [2]: 85%

Cc1ccc(-c2ccc3c(ccc4sc5c(c43)NC[C@@H](C)NC5=O)n2)cn1
% of inhibition [3]: 3% | % of inhibition [4]: 49%

Nc1cnc(N2CCc3cc(S(=O)(=O)Nc4c(F)cc(Cl)cc4F)cc(N4CCCC4=O)c32)nc1 [TP-020n]
% of control [5]: 100%

O=C(NOC[C@H](O)CO)c1ccc(F)c(F)c1Nc1ccc(I)cc1F
% of control [6]: 100%

Cc1cc([C@@H](C)Nc2ccccc2C(=O)O)c2nc(N3CCOCC3)cc(=O)n2c1 [AZD-6482]
% of control [7]: 100%

CC[C@@H]1[C@H](F)C(=O)N[C@@H]1COc1nccc2cc(C(N)=O)c(OC)cc12 [ZIMLOVISERTIB]
% of inhibition [8]: 28.7% | % of inhibition [9]: 17.3%

CNC(=O)Nc1ccc(-c2nc(N3CC4CCC(C3)O4)c3cnn(C4CCC5(CC4)OCCO5)c3n2)cc1
% of inhibition [10]: 3%

COc1cc(Nc2nc(C)cc(-c3cnn4nc(OC)ccc34)n2)cc(C(F)(F)F)c1
% of control [11]: 100%

Cc1cc(F)c(C(=O)Nc2cccc(-c3nncn3C(C)C)n2)cc1-n1cnc(C2CC2)c1
% of control [12]: 91%

N#Cc1cccc(-c2c[nH]c3ncnc(N4CCOCC4)c23)c1
% of control [13]: 100%

Reference: ChEMBL document CHEMBL5465560, “Selectivity Literature for EUbOPEN Chemogenomic Library” (2024)
